Values of other authors as cited in patent publication US20230115209A1, “[…] PSILOCIN CONTAINING COMPOSITIONS AND METHODS OF USING AND MAKING THE SAME” (Orthogonal Thinker, Inc., priority 2020, published 2023).

Experiments:
[1] = trace fear conditioning
[2] = in vivo

CN(C)CCc1c[nH]c2cccc(OP(=O)(O)O)c12 [Psilocybin, 4-phosphoryloxy-N,N-dimethyl-tryptamine]
extinction of the classically conditioned fear response [1]: facilitates extinction of the classically conditioned fear response
global neural signal diversity [2]: increase global neural signal diversity
